# Columns and labels:
# [1] = changing rate of blood pressure and heart rate by intravenous injection in anesthetized rats; format: in vivo, Wister male rats; conditions: for change in vivo at 1 mg/kg: Rattus norvegicus; for changing rate (%) of blood pressure / changing rate (%) of heart rate: Table 2
# Method: (blood pressure, heart rate increasing action by intravenous injection) Wister male rats (8 weeks old) were used as test animals. The rats were applied to anesthesia by intraperitoneal administration with 1.25 g/kg of urethane. The blood pressure was determined by inserting a polyethylene tube into a femoral artery, which was connected with a pressure transducer. The heart rate was determined from R wave of electrocardiograms (ECG) induced by standard limb lead II with a tachometer. Each test compound was dissolved in ethanol and intravenously administered to rats in 1 mg/kg diluted with Ringer's solution just before use. The maximum concentration of ethanol was 2 percent. An ethanol-containing Ringer without any test compound was used as a control to confirm the influence of the ethanol in each experiment. Each changing rate (%) in the blood pressure and heart rate before and after administration was determined, and the average of 3-4 experiments was shown in Table 1. Changing rates of blood pressure and heart rate were determined in the same manner as described in Example 1 except that the test compounds 60, 61 and 62 were used in different concentrations instead of the test compounds 1-55.
# [2] = progressing a breath (change rate of breath rate); format: in vivo, Wister male rats; conditions: tail vein, rats; for change in vivo at 1 mg/kg: Rattus norvegicus, iv
# Method: Wister male rats (8 weeks old) were applied to anesthesia by intraperitoneal administration with 1.25 g/kg of urethane. A pick-up for breath was fixed on a top of a rat's nose, and the breath curve was recorded on a polygraph while the breath rate was counted with a tachometer.
# Each test compound was dissolved in ethanol and administered to rats through a tale vein in 1 mg/kg as diluted with Ringer's solution just before use. The maximum concentration of ethanol was 2 percent. Ringers solution containing ethanol but not containing test compound was administered at every experiment as a control. The change rates (%) of the breath rate before and after administration were determined, and evaluated as progressing activity of breath.
# [3] = 1 (mg/kg), Table 1, read-out: changing rate of blood pressure
# [4] = 1 (mg/kg), Table 1, read-out: changing rate of heart rate
smiles,measurement,setting,value
"CCCCCC(=O)CC[C@H]1[C@H](O)CC(=O)[C@@H]1CC(=O)CCCCC(=O)OCC (relative stereo) [Compound 8, (±) 13,14-dihydro-6,15-diketo-PGE1 ethyl ester]",change in vivo at 1 mg/kg,[1]; [3],8%
same,change in vivo at 1 mg/kg,[2],65%
"CCCCCC(=O)CC[C@H]1[C@H](O)CC(=O)[C@@H]1CCCCCCC(=O)O [Compound 1, 13,14-dihydro-15-keto-PGE1, reference compound]",change in vivo at 1 mg/kg,[1]; [3],-6%
same,change in vivo at 1 mg/kg,[1]; [4],6%
same,change in vivo at 1 mg/kg,[2],34%
"CCCCCC(=O)CC[C@H]1[C@H](O)CC(=O)[C@@H]1CCCCC=CC(=O)OC [Compound 3, 13,14-dihydro-15-keto-Δ^2 -PGE1 methyl ester]",change in vivo at 1 mg/kg,[1]; [3],32%
same,change in vivo at 1 mg/kg,[1]; [4],43%
"CCCCCCCC(=O)CC[C@H]1[C@H](O)CC(=O)[C@@H]1CCCCCCC(=O)OC [Compound 4, 13,14-dihydro-15-keto-20-ethyl-PGE1 methy ester]",change in vivo at 1 mg/kg,[1]; [3],6%
same,change in vivo at 1 mg/kg,[1]; [4],33%
same,change in vivo at 1 mg/kg,[2],48%
"CCCCCC(=O)CC[C@H]1[C@H](O)CC(=O)[C@@H]1CC(=O)CCCCC(=O)O [Compound 5, 13,14-dihydro-6,15-diketo-PGE1, reference compound]",change in vivo at 1 mg/kg,[1]; [3],-4%
same,change in vivo at 1 mg/kg,[1]; [4],0%
same,change in vivo at 1 mg/kg,[2],4%
"CCCCCC(=O)CC[C@H]1[C@H](O)CC(=O)[C@@H]1CC(=O)CCCCC(=O)OC [Compound 6, 13,14-dihydro-6,15-diketo-PGE1 methyl ester]",change in vivo at 1 mg/kg,[1]; [3],3%
same,change in vivo at 1 mg/kg,[1]; [4],9%
same,change in vivo at 1 mg/kg,[2],21%
"CCCCCC(=O)CC[C@H]1[C@H](O)CC(=O)[C@@H]1CC(=O)CCCCC(=O)OCCCC [Compound 9, 13,14-dihydro-6,15-diketo-PGE1 n-butyl ester]",change in vivo at 1 mg/kg,[1]; [3],2%
same,change in vivo at 1 mg/kg,[1]; [4],26%
same,change in vivo at 1 mg/kg,[2],26%
"CCCCC(C)C(=O)CC[C@H]1[C@H](O)CC(=O)[C@@H]1CC(=O)CCCCC(=O)OC (some centres unmarked) [Compound 10, 13,14-dihydro-6,15-diketo-16R,S-methyl-PGE1 methyl ester]",change in vivo at 1 mg/kg,[1]; [3],22%
same,change in vivo at 1 mg/kg,[1]; [4],37%
same,change in vivo at 1 mg/kg,[2],63%
"CCCCC(C)C(=O)CC[C@H]1[C@H](O)CC(=O)[C@@H]1CC(=O)CCCCC(=O)OCC (some centres unmarked) [Compound 11, 13,14-dihydro-6,15-diketo-16R,S-methyl-PGE1 ethyl ester]",change in vivo at 1 mg/kg,[1]; [3],23%
same,change in vivo at 1 mg/kg,[1]; [4],18%
same,change in vivo at 1 mg/kg,[2],34%
"CCCCC(C)(C)C(=O)CC[C@H]1[C@H](O)CC(=O)[C@@H]1CC(=O)CCCCC(=O)OCC [Compound 12, 13,14-dihydro-6,15-diketo-16,16-dimethyl-PGE1 ethyl ester]",change in vivo at 1 mg/kg,[1]; [3],17%
same,change in vivo at 1 mg/kg,[1]; [4],38%
same,change in vivo at 1 mg/kg,[2],44%
"CCCCC(F)C(=O)CC[C@H]1[C@H](O)CC(=O)[C@@H]1CC(=O)CCCCC(=O)OCC (some centres unmarked) [Compound 13, 13,14-dihydro-6,15-diketo-16R,S-fluoro-PGE1 ethyl ester]",change in vivo at 1 mg/kg,[1]; [3],11%
same,change in vivo at 1 mg/kg,[1]; [4],20%
same,change in vivo at 1 mg/kg,[2],53%
"COC(=O)CCCCC(=O)C[C@H]1C(=O)C[C@@H](O)[C@@H]1CCC(=O)CCCC(C)C [Compound 14, 13,14-dihydro-6,15-diketo-19-methyl-PGE1 methyl ester]",change in vivo at 1 mg/kg,[1]; [3],12%
same,change in vivo at 1 mg/kg,[1]; [4],22%
same,change in vivo at 1 mg/kg,[2],33%
"COC(=O)CCCCC(=O)C[C@H]1C(=O)C[C@@H](CO)[C@@H]1CCC(=O)CCCC(C)C [Compound 16, 13,14-dihydro-6,15-diketo-11-dehydroxy-11R-hydroxymethyl-19-methyl-PGE1 methyl ester]",change in vivo at 1 mg/kg,[1]; [3],26%
same,change in vivo at 1 mg/kg,[1]; [4],25%
"CCCCCC(=O)CC[C@H]1[C@H](C)CC(=O)[C@@H]1CC(=O)CCCCC(=O)OC [Compound 17, 13,14-dihydro-6,15-diketo-11-dehydroxy-11R-methyl-PGE1 methyl ester]",change in vivo at 1 mg/kg,[1]; [3],46%
same,change in vivo at 1 mg/kg,[1]; [4],58%
"CCCCC(F)C(=O)CC[C@H]1[C@H](C)CC(=O)[C@@H]1CC(=O)CCCCC(=O)OCC (stereo partly drawn) [Compound 19, 13,14-dihydro-6,15-diketo-16R,S-fluoro-11R-dehydroxy-11R-methyl-PGE1 ethyl ester]",change in vivo at 1 mg/kg,[1]; [3],45%
same,change in vivo at 1 mg/kg,[1]; [4],51%
"CCCCCC(=O)CC[C@H]1[C@H](O)CC(=O)[C@@H]1C/C=C\CCCC(=O)O [Compound 20, 13,14-dihydro-15-keto-PGE2, reference compound]",blood pressure effect (in words),[1]; Example 1 conclusion,blood pressure decreasing effect
same,change in vivo at 1 mg/kg,[1]; [3],-15%
same,change in vivo at 1 mg/kg,[1]; [4],0%
same,change in vivo at 1 mg/kg,[2],12%
"CCCCCC(=O)CC[C@H]1[C@H](O)CC(=O)[C@@H]1C/C=C\CCCC(=O)OCCC [Compound 23, 13,14-dihydro-15-keto-PGE2 n-propyl ester]",change in vivo at 1 mg/kg,[1]; [3],5%
same,change in vivo at 1 mg/kg,[1]; [4],4%
same,change in vivo at 1 mg/kg,[2],37%
"CCCCCC(=O)CC[C@H]1[C@H](O)CC(=O)[C@@H]1C/C=C\CCCC(=O)OCCCC [Compound 24, 13,14-dihydro-15-keto-PGE2 n-butyl ester]",change in vivo at 1 mg/kg,[1]; [3],5%
same,change in vivo at 1 mg/kg,[1]; [4],5%
same,change in vivo at 1 mg/kg,[2],41%
"CCCCCC(=O)CC[C@H]1[C@H](O)CC(=O)[C@@H]1C/C=C\CCCC(=O)OCc1ccccc1 [Compound 25, 13,14-dihydro-15-keto-PGE2 benzyl ester]",change in vivo at 1 mg/kg,[1]; [3],2%
same,change in vivo at 1 mg/kg,[1]; [4],5%
same,change in vivo at 1 mg/kg,[2],22%
"CCCCCC(=O)CC[C@H]1[C@H](O)CC(=O)[C@@H]1C/C=C\CCCC(=O)OCCO [Compound 26, 13,14-dihydro-15-keto-PGE2 hydroxyethyl ester]",changing rate of blood pressure,"[1]; 0.2, Table 1",0%
same,changing rate of heart rate,"[1]; 0.2, Table 1",0%
same,changing rate of blood pressure,"[1]; 0.5, Table 1",0%
same,changing rate of heart rate,"[1]; 0.5, Table 1",0%
same,changing rate of blood pressure,"[1]; 1 (mg/kg), Table 1",+2%
same,changing rate of heart rate,"[1]; 1 (mg/kg), Table 1",+7%
same,progressing activity % of breath,[2]; 1 mg/kg,+22%
"CCCCCC(F)C(=O)CC[C@H]1[C@H](O)CC(=O)[C@@H]1C/C=C\CCCC(=O)OC (some centres unmarked) [Compound 39, 13,14-dihydro-15-keto-16R,S-fluoro-20-methylPGE2 methyl ester]",change in vivo at 1 mg/kg,[1]; [3],20%
same,change in vivo at 1 mg/kg,[1]; [4],47%
"COCCCCC(C)(C)C(=O)CC[C@H]1[C@H](O)CC(=O)[C@@H]1C/C=C\CCCC(=O)OC [Compound 48, 13,14-dihydro-15-keto-16,16-dimethyl-20-methoxy-PGE2 methyl ester]",change in vivo at 1 mg/kg,[1]; [3],15%
same,change in vivo at 1 mg/kg,[1]; [4],30%
"CCCCCCCC(=O)CC[C@H]1[C@H](O)CC(=O)[C@@H]1C/C=C\CCCC(=O)OCC [Compound 52, 13,14-dihydro-15-keto-20-ethyl-PGE2 ethyl ester]",change in vivo at 1 mg/kg,[1]; [3],13%
same,change in vivo at 1 mg/kg,[1]; [4],0%
"CCCCCCCC(=O)CC[C@H]1[C@H](C)CC(=O)[C@@H]1C/C=C\CCCC(=O)OC [Compound 53, 13,14-dihydro-15-keto-20-ethyl-11-dehydroxy-11R-methyl-PGE2 methyl ester]",change in vivo at 1 mg/kg,[1]; [3],17%
same,change in vivo at 1 mg/kg,[1]; [4],20%
"CCCCCCCCC(=O)CC[C@H]1[C@H](O)CC(=O)[C@@H]1C/C=C\CCCC(=O)OC [Compound 54, 13,14-dihydro-15-keto-20-n-propyl-PGE2 methyl ester]",change in vivo at 1 mg/kg,[1]; [3],18%
same,change in vivo at 1 mg/kg,[1]; [4],18%
"CCCCC(F)C(=O)/C=C/[C@H]1[C@H](O)CC(=O)[C@@H]1C/C=C\CCCC(=O)OC (some centres unmarked) [Compound 55, 15-keto-16R,S-fluoro-PGE2 methyl ester]",change in vivo at 1 mg/kg,[1]; [3],31%
same,change in vivo at 1 mg/kg,[1]; [4],58%
"CCCCC[C@H](O)/C=C/[C@H]1[C@H](O)CC(=O)[C@@H]1CCCCCCC(=O)O [Compound 56, PGE1, reference compound]",change in vivo at 1 mg/kg,[1]; [3],-54%
same,change in vivo at 1 mg/kg,[1]; [4],10%
"CCCCCCC(=O)CC[C@H]1[C@H](O)CC(=O)[C@@H]1CCCCCCC(=O)OC [Compound 60, 13,14-dihydro-15-keto-20-methyl-PGE1 methyl ester]",changing rate (%) of blood pressure,[1]; 0.1 mg/kg,+17%
same,changing rate (%) of heart rate,[1]; 0.1 mg/kg,+14%
same,changing rate (%) of blood pressure,[1]; 1 mg/kg,+13%
same,changing rate (%) of heart rate,[1]; 1 mg/kg,+38%
"CCCCC(F)(F)C(=O)CC[C@H]1[C@H](O)CC(=O)[C@@H]1C/C=C\CCCC(=O)OC [Compound 61, 13,14-dihydro-15-keto-16,16-difluoro-PGE2 methyl ester]",changing rate (%) of blood pressure,[1]; 0.01 mg/kg,+13%
same,changing rate (%) of heart rate,[1]; 0.01 mg/kg,+14%
same,changing rate (%) of blood pressure,[1]; 0.1 mg/kg,+15%
same,changing rate (%) of heart rate,[1]; 0.1 mg/kg,+30%
same,changing rate (%) of blood pressure,[1]; 1 mg/kg,+27%
same,changing rate (%) of heart rate,[1]; 1 mg/kg,+26%
"CCOC(=O)CCCCC(=O)C[C@H]1C(=O)C[C@@H](O)[C@@H]1CCC(=O)CCC(C)CC (some centres unmarked) [Compound 62, 13,14-dihydro-6,15-diketo-18-methyl-PGE1 ethyl ester]",changing rate (%) of heart rate,[1]; 0.1 mg/kg,+6%
same,changing rate (%) of heart rate,[1]; 1 mg/kg,+13%

# Source: patent US5169863A, “Hypersphyxia-causing methods” (K.K. Ueno Seiyaku Oyo Kenkyujo, priority 1988, dated 1992)
